Results published in patent publication US10800791B2, “Triazole ACC inhibitors and uses thereof” (Gilead Apollo, LLC, priority 2015, dated 2020).
Converted amounts (≈) assume the structure as drawn. Like-named read-outs stand apart in the source and are kept apart here.

Columns and labels:
C. parapsilosis = test: Antifungal Activity Assay (broth microtiter MIC), C. parapsilosis; format: cell-based, Candida parapsilosis; conditions: Lodderomyces parapsilosis, ATCC22019, 48 h
Summary of the method: (§1)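 MIC read by eye at 48 h, comparing challenged wells with the growth control. Yeasts grown overnight on Sabouraud dextrose agar at 35° C, suspended in RPMI 1640+MOPS and added at 2.5×10^3 CFU/mL final, following CLSI M27-A3.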

human (hACC2) = human (hACC2) (Homo sapiens, UniProt O00763); test: In vitro ACC inhibition assay (ADP-Glo), hACC2; format: biochemical; conditions: 5 nM ACC2, 20 μM ATP, 20 μM acetyl-CoA
Description: The detailed procedure is as follows. […] 10 μL ADP glo reagent was added. […] 20 μL kinase detection reagent was added.

C. albicans = test: Antifungal Activity Assay (broth microtiter MIC), C. albicans; format: cell-based, Candida albicans; conditions: Candida albicans, ATCC90028, 48 h
Summary of the method: as §1

C. krusei = test: Antifungal Activity Assay (broth microtiter MIC), C. krusei; format: cell-based, Candida krusei; conditions: Pichia kudriavzevii, ATCC6258, 48 h
Summary of the method: as §1

fungal (fACC2) = fungal (fACC2) (UniProt Q00955); conditions: read-out: fACC2 (in vitro ACC2 Inhibition Assay, IC50), ADP-Glo, 5 nM ACC2, 20 μM ATP, 20 μM acetyl-CoA
[1] = Table 3b (additional results), ATCC 22019, 3 replicates, MIC recorded at 48 h, read-out: MIC, C. parapsilosis ATCC 22019
[2] = Table 3b (additional results), ATCC 90028, 3 replicates, MIC recorded at 48 h, read-out: MIC, C. albicans ATCC 90028
[3] = Table 3b (additional results), ATCC 6258, 3 replicates, MIC recorded at 48 h, read-out: MIC, C. krusei ATCC 6258
[4] = read-out: MIC, C. parapsilosis ATCC 22019, Table 3b (additional results), 3 replicates, MIC recorded at 48 h
[5] = read-out: MIC, C. albicans ATCC 90028, Table 3b (additional results), 3 replicates, MIC recorded at 48 h
[6] = read-out: MIC, C. krusei ATCC 6258, Table 3b (additional results), 3 replicates, MIC recorded at 48 h

fungal (fACC2), sequence (Q00955 whole entry): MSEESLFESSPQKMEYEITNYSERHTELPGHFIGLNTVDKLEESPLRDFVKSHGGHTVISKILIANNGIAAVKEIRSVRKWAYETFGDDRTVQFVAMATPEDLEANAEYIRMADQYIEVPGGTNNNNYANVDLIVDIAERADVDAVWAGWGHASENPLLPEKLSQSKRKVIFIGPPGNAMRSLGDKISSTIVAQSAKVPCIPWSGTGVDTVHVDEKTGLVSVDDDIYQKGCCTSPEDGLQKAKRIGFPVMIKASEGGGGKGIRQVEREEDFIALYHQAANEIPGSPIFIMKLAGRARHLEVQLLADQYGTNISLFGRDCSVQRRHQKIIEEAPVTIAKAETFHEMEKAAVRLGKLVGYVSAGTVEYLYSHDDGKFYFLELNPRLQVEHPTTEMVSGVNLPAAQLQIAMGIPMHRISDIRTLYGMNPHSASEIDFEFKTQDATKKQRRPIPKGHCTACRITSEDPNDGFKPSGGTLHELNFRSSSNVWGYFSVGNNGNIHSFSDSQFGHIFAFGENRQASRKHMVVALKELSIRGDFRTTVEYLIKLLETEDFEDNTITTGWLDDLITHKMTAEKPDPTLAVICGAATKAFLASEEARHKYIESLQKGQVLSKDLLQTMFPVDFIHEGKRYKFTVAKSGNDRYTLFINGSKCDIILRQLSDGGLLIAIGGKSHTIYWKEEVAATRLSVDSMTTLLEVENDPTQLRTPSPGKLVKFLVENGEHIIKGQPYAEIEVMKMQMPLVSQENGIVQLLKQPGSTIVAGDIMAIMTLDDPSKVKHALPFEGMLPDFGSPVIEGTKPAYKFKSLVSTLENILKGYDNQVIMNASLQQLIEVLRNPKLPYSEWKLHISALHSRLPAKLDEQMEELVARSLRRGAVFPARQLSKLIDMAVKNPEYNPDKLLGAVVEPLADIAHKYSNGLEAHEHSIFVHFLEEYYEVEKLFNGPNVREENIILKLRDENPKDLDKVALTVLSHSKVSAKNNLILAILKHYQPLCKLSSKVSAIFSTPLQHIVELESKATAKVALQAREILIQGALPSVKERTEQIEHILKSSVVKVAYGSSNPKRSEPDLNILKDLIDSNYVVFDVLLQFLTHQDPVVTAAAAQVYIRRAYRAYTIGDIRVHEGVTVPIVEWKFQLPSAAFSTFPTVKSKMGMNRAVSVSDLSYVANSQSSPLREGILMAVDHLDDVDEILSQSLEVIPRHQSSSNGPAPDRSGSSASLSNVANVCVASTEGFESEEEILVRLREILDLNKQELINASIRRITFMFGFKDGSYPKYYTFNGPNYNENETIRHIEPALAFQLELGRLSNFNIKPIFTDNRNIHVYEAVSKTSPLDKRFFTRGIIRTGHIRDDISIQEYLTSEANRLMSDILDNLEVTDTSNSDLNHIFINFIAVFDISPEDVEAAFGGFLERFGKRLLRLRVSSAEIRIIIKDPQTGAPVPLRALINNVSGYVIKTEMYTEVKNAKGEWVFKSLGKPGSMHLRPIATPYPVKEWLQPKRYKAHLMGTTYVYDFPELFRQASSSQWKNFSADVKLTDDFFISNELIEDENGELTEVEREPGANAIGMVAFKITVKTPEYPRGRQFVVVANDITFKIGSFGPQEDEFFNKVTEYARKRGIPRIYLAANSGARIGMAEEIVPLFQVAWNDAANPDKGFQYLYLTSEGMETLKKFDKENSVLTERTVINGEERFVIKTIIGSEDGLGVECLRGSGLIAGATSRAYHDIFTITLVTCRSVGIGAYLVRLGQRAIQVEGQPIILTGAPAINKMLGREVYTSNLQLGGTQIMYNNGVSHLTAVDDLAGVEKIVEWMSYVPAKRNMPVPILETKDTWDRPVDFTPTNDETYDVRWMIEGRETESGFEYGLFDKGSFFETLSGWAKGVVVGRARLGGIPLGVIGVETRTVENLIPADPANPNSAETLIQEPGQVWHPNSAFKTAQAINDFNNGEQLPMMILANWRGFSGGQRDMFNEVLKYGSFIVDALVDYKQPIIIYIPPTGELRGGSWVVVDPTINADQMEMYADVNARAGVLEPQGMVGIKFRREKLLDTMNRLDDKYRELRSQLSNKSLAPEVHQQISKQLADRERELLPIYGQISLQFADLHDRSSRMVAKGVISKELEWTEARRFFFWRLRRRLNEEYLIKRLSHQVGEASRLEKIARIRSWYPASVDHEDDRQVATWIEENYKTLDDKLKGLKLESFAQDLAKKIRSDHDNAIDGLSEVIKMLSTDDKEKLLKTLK
human (hACC2), sequence (O00763 whole entry): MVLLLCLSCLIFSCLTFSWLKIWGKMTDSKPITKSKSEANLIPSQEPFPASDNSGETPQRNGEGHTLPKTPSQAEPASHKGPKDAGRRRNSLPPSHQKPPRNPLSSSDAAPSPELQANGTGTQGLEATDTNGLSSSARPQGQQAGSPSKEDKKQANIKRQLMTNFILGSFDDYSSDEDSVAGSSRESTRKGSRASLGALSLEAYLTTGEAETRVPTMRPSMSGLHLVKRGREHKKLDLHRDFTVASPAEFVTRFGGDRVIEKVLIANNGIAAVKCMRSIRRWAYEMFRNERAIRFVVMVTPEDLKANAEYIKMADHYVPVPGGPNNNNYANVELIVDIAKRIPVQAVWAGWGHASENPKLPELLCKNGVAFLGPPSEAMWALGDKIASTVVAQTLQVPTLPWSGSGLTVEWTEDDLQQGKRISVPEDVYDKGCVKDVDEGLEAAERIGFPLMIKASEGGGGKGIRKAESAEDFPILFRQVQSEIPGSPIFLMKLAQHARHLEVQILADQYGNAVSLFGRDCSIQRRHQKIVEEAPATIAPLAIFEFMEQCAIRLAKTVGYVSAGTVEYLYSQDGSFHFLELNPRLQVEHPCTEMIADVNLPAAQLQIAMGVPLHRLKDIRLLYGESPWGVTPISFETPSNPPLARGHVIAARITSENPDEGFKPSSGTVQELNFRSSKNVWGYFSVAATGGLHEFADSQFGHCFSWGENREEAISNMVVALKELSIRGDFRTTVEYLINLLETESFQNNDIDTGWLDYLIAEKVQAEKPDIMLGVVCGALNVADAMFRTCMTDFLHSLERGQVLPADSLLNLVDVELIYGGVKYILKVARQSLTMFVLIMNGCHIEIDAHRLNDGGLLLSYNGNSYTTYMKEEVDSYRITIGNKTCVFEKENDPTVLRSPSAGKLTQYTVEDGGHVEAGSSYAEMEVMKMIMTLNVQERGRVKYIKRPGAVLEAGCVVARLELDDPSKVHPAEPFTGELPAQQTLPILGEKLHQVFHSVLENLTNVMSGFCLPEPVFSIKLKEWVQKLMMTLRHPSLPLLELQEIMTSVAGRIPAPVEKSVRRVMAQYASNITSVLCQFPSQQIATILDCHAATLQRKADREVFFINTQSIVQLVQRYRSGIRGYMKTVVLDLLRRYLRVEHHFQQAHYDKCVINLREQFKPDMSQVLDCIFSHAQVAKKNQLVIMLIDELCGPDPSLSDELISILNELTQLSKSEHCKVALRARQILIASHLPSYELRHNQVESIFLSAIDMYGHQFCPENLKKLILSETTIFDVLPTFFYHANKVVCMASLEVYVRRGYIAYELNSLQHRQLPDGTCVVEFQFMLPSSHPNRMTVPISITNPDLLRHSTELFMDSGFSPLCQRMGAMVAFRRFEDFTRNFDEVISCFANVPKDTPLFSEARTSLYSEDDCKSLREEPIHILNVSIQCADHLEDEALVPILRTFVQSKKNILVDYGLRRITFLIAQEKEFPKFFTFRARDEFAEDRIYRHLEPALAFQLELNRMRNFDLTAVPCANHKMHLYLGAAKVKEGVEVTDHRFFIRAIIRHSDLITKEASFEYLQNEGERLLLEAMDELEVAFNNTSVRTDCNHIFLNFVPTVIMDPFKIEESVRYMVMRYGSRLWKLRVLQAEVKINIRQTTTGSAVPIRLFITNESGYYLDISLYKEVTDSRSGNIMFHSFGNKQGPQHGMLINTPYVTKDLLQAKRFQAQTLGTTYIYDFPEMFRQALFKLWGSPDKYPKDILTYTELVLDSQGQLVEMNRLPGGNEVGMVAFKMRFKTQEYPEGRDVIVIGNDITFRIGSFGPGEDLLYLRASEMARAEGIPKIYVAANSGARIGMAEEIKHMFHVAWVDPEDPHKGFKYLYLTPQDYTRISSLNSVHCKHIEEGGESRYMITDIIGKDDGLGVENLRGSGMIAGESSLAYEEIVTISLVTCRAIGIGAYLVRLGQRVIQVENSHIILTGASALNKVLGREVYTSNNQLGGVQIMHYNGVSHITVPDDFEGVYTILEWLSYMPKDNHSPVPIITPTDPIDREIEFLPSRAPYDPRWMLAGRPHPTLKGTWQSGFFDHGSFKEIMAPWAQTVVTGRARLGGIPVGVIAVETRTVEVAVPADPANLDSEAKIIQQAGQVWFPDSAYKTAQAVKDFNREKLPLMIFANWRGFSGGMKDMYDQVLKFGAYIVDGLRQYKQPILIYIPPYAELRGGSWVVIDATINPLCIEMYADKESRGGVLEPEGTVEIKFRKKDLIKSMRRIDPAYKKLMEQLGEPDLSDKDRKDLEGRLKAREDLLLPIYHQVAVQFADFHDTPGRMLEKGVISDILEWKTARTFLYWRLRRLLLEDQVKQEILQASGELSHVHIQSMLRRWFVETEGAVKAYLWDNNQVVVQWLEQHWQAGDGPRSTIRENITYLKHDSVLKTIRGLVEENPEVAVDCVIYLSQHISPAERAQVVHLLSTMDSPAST

SMILES	MIC (C. parapsilosis; [1]) [µg/mL]	IC50 (human (hACC2); Table 2a) [nM]	IC50 (human (hACC2); Table 2b, additional results) [nM]	MIC (C. albicans; [2]) [µg/mL]	MIC (C. krusei; [3]) [µg/mL]	IC50 (fungal (fACC2); Table 2a) [nM]	IC50 (fungal (fACC2); Table 2b, additional results) [nM]	MIC (C. parapsilosis; [4]) [µg/mL]	MIC (C. albicans; [5]) [µg/mL]	MIC (C. krusei; [6]) [µg/mL]
COc1ccc(F)cc1[C@H](Cn1c(=O)n([C@@H](C)C(=O)N(C)C(C)C)c(=O)c2c(C)c(-n3nccn3)sc21)OCC(C)(C)O [Compound I-170]	2.01 to 4 (≈ 3.26 to 6.49 µM)	10 to 40	10 to 40	0.25 to 1 (≈ 0.405 to 1.62 µM)	> 4.01	0.4 to 1	0.3 to 1			
COc1ccc(F)cc1[C@H](Cn1c(=O)n([C@H](C)C(=O)NC(C)C)c(=O)c2c(C)c(-n3nccn3)sc21)OCC(C)(C)O [Compound I-171]		10 to 40	10 to 40			1 to 5	1 to 5	1.01 to 2 (≈ 1.68 to 3.32 µM)	1.01 to 2 (≈ 1.68 to 3.32 µM)	2.01 to 4 (≈ 3.34 to 6.64 µM)
COc1ccc(F)cc1[C@H](Cn1c(=O)n([C@@H](C)C(=O)NC(C)C)c(=O)c2c(C)c(-n3nccn3)sc21)OCC(C)(C)O [Compound I-172]		5 to 10	5 to 10			0.4 to 1	0.3 to 1	1.01 to 2 (≈ 1.68 to 3.32 µM)	1.01 to 2 (≈ 1.68 to 3.32 µM)	2.01 to 4 (≈ 3.34 to 6.64 µM)
COc1ccc(F)cc1[C@H](Cn1c(=O)n([C@H](C)C(N)=O)c(=O)c2c(C)c(-n3nccn3)sc21)OCC(C)(C)O [Compound I-173]	2.01 to 4 (≈ 3.59 to 7.14 µM)	10 to 40	10 to 40	0.25 to 1 (≈ 0.446 to 1.78 µM)	> 4.01	1 to 5	1 to 5			
COc1ccc(F)cc1[C@H](Cn1c(=O)n([C@@H](C)C(N)=O)c(=O)c2c(C)c(-n3nccn3)sc21)OCC(C)(C)O [Compound I-174]	2.01 to 4 (≈ 3.59 to 7.14 µM)	5 to 10	5 to 10	0.25 to 1 (≈ 0.446 to 1.78 µM)	> 4.01	0.4 to 1	0.3 to 1			
COc1ccc(F)cc1[C@H](Cn1c(=O)n([C@H](C)C(=O)N2CCCC2)c(=O)c2c(C)c(-n3nccn3)sc21)OCC(C)(C)O [Compound I-175]	1.01 to 2 (≈ 1.64 to 3.25 µM)	5 to 10	5 to 10	0.25 to 1 (≈ 0.407 to 1.63 µM)	2.01 to 4 (≈ 3.27 to 6.51 µM)	0.4 to 1	0.3 to 1			
COc1ccc(F)cc1[C@H](Cn1c(=O)n([C@@H](C)C(=O)N2CCCC2)c(=O)c2c(C)c(-n3nccn3)sc21)OCC(C)(C)O [Compound I-176]	1.01 to 2 (≈ 1.64 to 3.25 µM)	10 to 40	10 to 40	0.25 to 1 (≈ 0.407 to 1.63 µM)	2.01 to 4 (≈ 3.27 to 6.51 µM)	1 to 5	1 to 5			
COc1ccccc1[C@@H](O)Cn1c(=O)n([C@@H](C)C(=O)N(C)C(C)C)c(=O)c2c(C)c(-n3nccn3)sc21 [Compound I-200]	2.01 to 4 (≈ 3.82 to 7.6 µM)		10 to 40	2.01 to 4 (≈ 3.82 to 7.6 µM)	2.01 to 4 (≈ 3.82 to 7.6 µM)		1 to 5			
COc1ccccc1[C@@H](O)Cn1c(=O)n([C@@H](C)C(=O)NC(C)C)c(=O)c2c(C)c(-n3nccn3)sc21 [Compound I-201]			10 to 40				0.3 to 1	1.01 to 2 (≈ 1.97 to 3.9 µM)	2.01 to 4 (≈ 3.92 to 7.8 µM)	2.01 to 4 (≈ 3.92 to 7.8 µM)
CCc1ccc(F)cc1[C@@H](O)Cn1c(=O)n(C(C)(C)C(N)=O)c(=O)c2c(C)c(-n3nccn3)sc21 [Compound I-202]	> 4.01		10 to 40	> 4.01	> 4.01		1 to 5			
COc1ccccc1[C@H](Cn1c(=O)n([C@@H](C)C(=O)N(C)C(C)C)c(=O)c2c(C)c(-n3nccn3)sc21)OCCO [Compound I-207]	1.01 to 2 (≈ 1.77 to 3.5 µM)		5 to 10	1.01 to 2 (≈ 1.77 to 3.5 µM)	1.01 to 2 (≈ 1.77 to 3.5 µM)		0.3 to 1			
COc1ccccc1[C@H](Cn1c(=O)n(C(C)(C)C(=O)NC(C)C)c(=O)c2c(C)c(-n3nccn3)sc21)OCCN1CC(F)C1 [Compound I-209]			> 40				1 to 5	0.25 to 1 (≈ 0.398 to 1.59 µM)	1.01 to 2 (≈ 1.61 to 3.19 µM)	0.25 to 1 (≈ 0.398 to 1.59 µM)
COc1ccc(F)cc1[C@H](Cn1c(=O)n(C(C)(C)C(=O)NC(C)C)c(=O)c2c(C)c(-n3nccn3)sc21)OCCC(=O)N(C)O [Compound I-219]			5 to 10				1 to 5	0.25 to 1 (≈ 0.387 to 1.55 µM)	0.25 to 1 (≈ 0.387 to 1.55 µM)	0.25 to 1 (≈ 0.387 to 1.55 µM)
COc1ccc(F)cc1[C@H](Cn1c(=O)n(C(C)(C)C(=O)NC(C)C)c(=O)c2c(C)c(-n3nccn3)sc21)OCCC(O)CO (stereo partly drawn) [Compound I-220]	0.25 to 1 (≈ 0.395 to 1.58 µM)		10 to 40	0.25 to 1 (≈ 0.395 to 1.58 µM)	0.25 to 1 (≈ 0.395 to 1.58 µM)		1 to 5			
